Laboratory results reported in PubChem BioAssay AID256 (DTP/NCI, 2004).
“And” between values parts separate entries of the source, which are not always exact repeats. Equal entries are not always repeated. Inconclusive results and toxic doses are left out.

Tested on: CD2F1 mice, L1210 leukemia ip, survival T/C
Test: NCI In Vivo Anticancer Drug Screen. Data for tumor model L1210 Leukemia (intraperitoneal) in CD2F1 (CDF1) mice
Settings: higher = longer survival
In short: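 Antitumor effect is scored in animals hosting a serially transplanted tumor. Values compare compound-dosed animals against vehicle-only controls as a simple quotient.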

[1] = endpoint: mean survival time, dose: 100.0 mg/kg/injection, schedule: Q01DX001 (ip), vehicle: saline with Tween-80
[2] = endpoint: mean survival time, dose: 200.0 mg/kg/injection, schedule: Q01DX001 (ip), vehicle: saline with Tween-80
[3] = endpoint: mean survival time, dose: 100.0 mg/kg/injection, schedule: Q01DX009 (ip), vehicle: saline with Tween-80
[4] = endpoint: mean survival time, dose: 200.0 mg/kg/injection, schedule: Q01DX009 (ip), vehicle: saline with Tween-80
[5] = endpoint: mean survival time, dose: 400.0 mg/kg/injection, schedule: Q01DX009 (ip), vehicle: saline with Tween-80
[6] = endpoint: mean survival time, dose: 100.0 mg/kg/injection, schedule: Q04DX003 (ip), vehicle: saline with Tween-80
[7] = endpoint: mean survival time, dose: 200.0 mg/kg/injection, schedule: Q04DX003 (ip), vehicle: saline with Tween-80
[8] = endpoint: mean survival time, dose: 400.0 mg/kg/injection, schedule: Q04DX003 (ip), vehicle: saline with Tween-80

## O=c1cn[nH]c(=O)[nH]1
endpoint: median survival time, dose: 62.5 mg/kg/injection, schedule: Q01DX009 (ip), vehicle: saline
  T/C: 94 % of control and 100 % of control
endpoint: median survival time, dose: 125.0 mg/kg/injection, schedule: Q01DX009 (ip), vehicle: saline
  T/C: 100 % of control
endpoint: median survival time, dose: 250.0 mg/kg/injection, schedule: Q01DX009 (ip), vehicle: saline
  T/C: 122 % of control and 100 % of control
endpoint: median survival time, dose: 500.0 mg/kg/injection, schedule: Q01DX009 (ip), vehicle: saline
  T/C: 111 % of control and 112 % of control

## FC(F)(F)C1(F)N(Cc2ccccc2)N=NC1(F)F (centres undefined)
endpoint: mean survival time, dose: 75.0 mg/kg/injection, schedule: Q01DX001 (ip), vehicle: saline
  T/C: 96 % of control
endpoint: mean survival time, dose: 150.0 mg/kg/injection, schedule: Q01DX001 (ip), vehicle: saline
  T/C: 98 % of control
endpoint: mean survival time, dose: 300.0 mg/kg/injection, schedule: Q01DX001 (ip), vehicle: saline
  T/C: 96 % of control

## CC[C@@]1(O)C(=O)OCc2c1cc1n(c2=O)Cc2cc3ccccc3nc2-1
endpoint: mean survival time, dose: 0.78 mg/kg/injection, schedule: Q04DX003 (ip), vehicle: water
  T/C: 120 % of control
endpoint: mean survival time, dose: 1.56 mg/kg/injection, schedule: Q04DX003 (ip), vehicle: water
  T/C: 156 % of control
endpoint: mean survival time, dose: 3.13 mg/kg/injection, schedule: Q04DX003 (ip), vehicle: other
  T/C: 159 % of control
endpoint: mean survival time, dose: 3.13 mg/kg/injection, schedule: Q04DX003 (ip), vehicle: water
  T/C: 156 % of control
endpoint: mean survival time, dose: 6.25 mg/kg/injection, schedule: Q04DX003 (ip), vehicle: other
  T/C: 124 % of control
endpoint: mean survival time, dose: 12.5 mg/kg/injection, schedule: Q04DX003 (ip), vehicle: water
  T/C: 95 % of control
endpoint: mean survival time, dose: 25.0 mg/kg/injection, schedule: Q04DX003 (ip), vehicle: other
  T/C: 119 % of control

## C1CSC(CC2SCCCS2)SC1
endpoint: mean survival time, dose: 50.0 mg/kg/injection, schedule: Q01DX001 (ip), vehicle: saline with Tween-80
  T/C: 97 % of control
[1]
  T/C: 94 % of control
[2]
  T/C: 96 % of control

## C=CC(=O)CCCC(=O)O
[3]
  T/C: 100 % of control
[4]
  T/C: 102 % of control
[5]
  T/C: 104 % of control

## C=C(Cl)CSCCS
endpoint: mean survival time, dose: 50.0 mg/kg/injection, schedule: Q01DX009 (ip), vehicle: acetone
  T/C: 101 % of control
endpoint: mean survival time, dose: 100.0 mg/kg/injection, schedule: Q01DX009 (ip), vehicle: acetone
  T/C: 103 % of control

## CCc1c(C)c(C)cc(S(=O)(=O)O)c1C
endpoint: mean survival time, dose: 50.0 mg/kg/injection, schedule: Q01DX009 (ip), vehicle: saline with Tween-80
  T/C: 104 % of control
[3]
  T/C: 93 % of control
[6]
  T/C: 101 % of control
[4]
  T/C: 89 % of control
[7]
  T/C: 87 % of control

## CC1(C)N=C(N)N=C(N)N1c1ccc(OCC(=O)N2CCOCC2)c(Cl)c1
endpoint: mean survival time, dose: 6.25 mg/kg/injection, schedule: Q01DX009 (ip), vehicle: saline
  T/C: 98 % of control
endpoint: mean survival time, dose: 12.5 mg/kg/injection, schedule: Q01DX009 (ip), vehicle: saline
  T/C: 97 % of control
endpoint: mean survival time, dose: 25.0 mg/kg/injection, schedule: Q01DX009 (ip), vehicle: saline
  T/C: 92 % of control
endpoint: mean survival time, dose: 50.0 mg/kg/injection, schedule: Q01DX009 (ip), vehicle: saline
  T/C: 98 % of control
endpoint: mean survival time, dose: 100.0 mg/kg/injection, schedule: Q01DX009 (ip), vehicle: saline
  T/C: 98 % of control

## OCc1c(Cl)c(Cl)c(CO)c(Cl)c1Cl
[3]
  T/C: 95 % of control
[6]
  T/C: 102 % of control
[4]
  T/C: 90 % of control
[7]
  T/C: 100 % of control
[5]
  T/C: 94 % of control
[8]
  T/C: 96 % of control

## CC1(C)CC(=O)C=C(NCc2ccccc2)C1
[6]
  T/C: 93 % of control
[7]
  T/C: 91 % of control

## OC(C/C(=N\Nc1ccccc1)c1ccc(Br)cc1)(C(F)(F)F)C(F)(F)F
[1]
  T/C: 96 % of control
[2]
  T/C: 95 % of control
endpoint: mean survival time, dose: 400.0 mg/kg/injection, schedule: Q01DX001 (ip), vehicle: saline with Tween-80
  T/C: 97 % of control

## Cc1ccc(CC(F)(F)F)cc1
[6]
  T/C: 100 % of control
[7]
  T/C: 100 % of control
[8]
  T/C: 108 % of control

## COc1ccc2c(c1)C1(C)CCCC(C#N)C1CC2 (centres undefined)
endpoint: mean survival time, dose: 100.0 mg/kg/injection, schedule: Q01DX001 (ip), vehicle: saline
  T/C: 101 % of control
endpoint: mean survival time, dose: 200.0 mg/kg/injection, schedule: Q01DX001 (ip), vehicle: saline
  T/C: 96 % of control
endpoint: mean survival time, dose: 400.0 mg/kg/injection, schedule: Q01DX001 (ip), vehicle: saline
  T/C: 94 % of control
